Laboratory results from paper PMC7700664, “In Vitro and Ex Vivo Evaluation of Penetratin as a Non-invasive Permeation Enhancer in the Penetration of Salmon Calcitonin through TR146 Buccal Cells and Porcine Buccal Tissues” (Pharmaceuticals, 2020).

Key:
TR146 cells = experiment: FITC-Penetratin and Alexa 647-sCT internalization in TR146 cells (flow cytometry); format: cell-based, human; details: 2 h, FACS
Experimental: For the internalization of FITC-Penetratin and Alexa 647-sCT, Alexa 647-sCT was synthesized. Alexa-647 and sCT were left at room temperature for 2 h to react, and the reaction was terminated using ammonium chloride. Purification of Alexa 647-sCT was done through dialysis.
TR146 cells were seeded in a 6-well culture plate and confocal dish at a density of 5.0 × 10^5 cells per well, and incubated for 24 h at 37 °C in 5 % CO2. To determine the concentration at which optimal intracellular uptake of Penetratin occurs, FITC-Penetratin at 2.5, 5, 10, 15, 20, 30, and 40 μM were added and incubated for 2 h.
To confirm the effect of Penetratin on intracellular uptake of sCT, 1.22, 6.10 and 12.2 μM of FITC-Penetratin were added to 40 μg of Alexa 647-sCT and incubated for 2 h at 37 °C. For the energy-independent internalization of Penetratin, 40 μg of Alexa 647-sCT and 12.2 μM of FITC-Penetratin were added and incubated for 2 h at 4 °C (energy-abolishing condition) and 37 °C (biological condition). After 2 h, imaging study with flow cytometry (BD FACSverse; Becton Dickinson, Heidelberg, Germany) and confocal laser scanning microscopy (LSM 800, Zeiss, Oberkochen, Germany) were performed.
TR146 cells were treated with a pre-determined amount of FITC-Penetratin and Alexa 647-sCT in a 6-well culture plate. […]

TR146 cell layer = experiment: In vitro cell permeation study (Transwell); format: in vitro ADME, human; design: Kp (permeability coefficient): unit not given here; details: 40 μg sCT; for Kp (permeability coefficient) / ER (enhancement ratio): TR146 Transwell; for Kp (permeability coefficient) / Js (flux): apical to basolateral, HBSS-HEPES, 37 °C, mean ± SD n = 3; for Kp (permeability coefficient): ELISA, Kp = Js/Cd; for Js (flux): TR146 layer on 12-well Transwell, 28–30 days culture, sampling 0.5–8 h, sCT ELISA
Experimental: (§1) TR146 cell was seeded in a 12-well Transwell insert (Corning Inc., Corning, NY, USA) at a density of 5 × 10^4 cells per cm^2, and the medium was changed every 2 days for 28–30 days. The experiment was conducted from apical to basolateral and HBSS-HEPES buffer was used as media. Forty micrograms of sCT and 1.22, 6.10, and 12.2 μM of Penetratin were added to apical chamber and kept at 37 °C. 500 μL of sampling was obtained at 0.5, 1, 2, 4 and 8 h. Transepithelial electrical resistance (TEER) value was measured before and after the experiment. TEER was calculated with the following Equation (1), where Rinsert with cell, Rinsert without cell, and A were insert filter areas. The permeated amount of sCT was analyzed using an sCT ELISA kit (Phoenix Pharmaceuticals, Burlingame, CA, USA):TEER = (Rinsert with cell − Rinsert without cell) × A(1)
(§2) The flux (Js) was calculated using the following Equation (2), where t (h) was permeation time, A( cm^2 ) was permeation area, and Qr (ng) was the permeated amount of sCT, (2) Js=Qr/A·t(ng·cm^−2·h^−1) Kp was calculated with the following Equation (3), (3) Kp=Js/Cd([…]) where Js was the flux from the steady state (ng⋅cm^−2⋅h^−1) and Cd was the initial concentration in the donor chamber (ng⋅cm^−3). Finally, the enhancement ratio (ER) was obtained by dividing the Kp value of each formulation with that of the control.

TR146 cell layers = experiment: TEER before and after permeability experiments; format: cell-based, human; details: for TEER Value After: after permeability experiment (8 h, 37 °C); for TEER Value After / TEER Value Before: TR146 cell layers on Transwell; for TEER Recovery: after vs before permeability experiment, TR146 cell layers; for TEER Value Before: before permeability experiment
Experimental: as §1

porcine buccal tissues = experiment: Ex vivo buccal tissues permeation (Franz diffusion cell); format: in vitro ADME; details: 40 μg sCT; for Kp (permeability coefficient) / Js (flux): porcine buccal epithelium, 37 °C, mean ± SD n = 3; for Kp (permeability coefficient): Franz cell, pH 7.4 PBS, ELISA, Kp = Js/Cd; for Js (flux): Franz diffusion cell, area 2.0 cm^2, receptor 12.5 mL pH 7.4 PBS, 600 rpm, 8 h, sCT ELISA; for ER (enhancement ratio): porcine buccal tissue
Experimental: Buccal pre-treatment was performed according to the experimental method of Oh et al.. Briefly, porcine buccal tissues were immediately collected after pigs were sacrificed from a local slaughterhouse. Adipose and connective tissues were removed from buccal mucosa using surgical scissors. To obtain buccal epithelium, tissues were put in pH 7.4 PBS at 60 °C for 1 min. They were evaluated in the following in vitro permeation study.
Buccal permeability of sCT was evaluated using the Franz diffusion cell. The permeation area was 2.0 cm^2, and the volume of receptor media was 12.5 mL. The receptor was filled with pH 7.4 PBS and stirred at 600 rpm at 37 °C. The Franz diffusion cell was equilibrated for 30 min after mounting the buccal epithelium. Forty micrograms of sCT and of 1.22, 6.10 and 12.2 μM of Penetratin, of which molecular ratios were 1:0.1, 1:0.5 and 1:1 in donor part, respectively, were added to the Franz diffusion cell. Half of a milliliter of sample was obtained at different time intervals (1, 2, 4, and 8 h) from the receptor part and analyzed by a sCT ELISA kit (Phoenix Pharmaceuticals, Burlingame, CA, USA).
as §2

[1] = no reference given for the value; cited from earlier work
Experimental: Penetratin is one of the most promising CPPs. Penetratin has positively charged amino acids such as lysine and arginine, and hydrophobic amino acids. Various cargoes were delivered by overcoming the barrier of the cell membrane, but the mechanism of CPPs and Cargo delivery through the cell membrane is still unclear. There is a possible explanation. At pH 7.4, where permeation and cell uptake experiments were conducted, sCT with a pI of 10.4 and penetratin have a positive charge, so there is no ionic interaction between penetratin and sCT. Penetratin and sCT form a hydrophobic interactio ...

[2] = Penetratin 1.22 μM, Kp of formulation divided by Kp of control
[3] = Penetratin 6.10 μM, Kp of formulation divided by Kp of control

Which “internalization of FITC-Penetratin at 4 °C” value (TR146 cells; 12.2 μM FITC-Penetratin + 40 μg Alexa 647-sCT, 4 °C) does the source give for “FITC-Penetratin: FITC labeled Penetratin, purchased from Peptron” here?
The value was “confirmed”.

And the “relative MFI of FITC-Penetratin (internalization) versus concentration” value (TR146 cells; FITC-Penetratin 2.5–40 μM, 37 °C, n = 3)?
Its value is “increased steeply from 2.5 to 15 μM, but increased more gradually from 15 to 40 μM”.

For Salmon calcitonin [sCT], which “Kp (permeability coefficient)” value (TR146 cell layer; Penetratin 0 μM (control)) is on record?
The value was 0.201 ± 0.007.

What about the “Js (flux)” value (TR146 cell layer; Penetratin 0 μM (control)) of the same substance?
The value was 16.091 ± 0.560 ng·cm^−2·h^−1.

What about the “Kp (permeability coefficient)” value (TR146 cell layer; Penetratin 1.22 μM) of the same substance?
The value was 0.275 ± 0.041.

And the “ER (enhancement ratio)” value (TR146 cell layer; [2])?
Its value is 1.4.

What about the “Js (flux)” value (TR146 cell layer; Penetratin 1.22 μM) of the same substance?
The value was 22.004 ± 3.247 ng·cm^−2·h^−1.

What about the “Kp (permeability coefficient)” value (TR146 cell layer; Penetratin 6.10 μM) of the same substance?
The value was 0.676 ± 0.063.

And the “ER (enhancement ratio)” value (TR146 cell layer; [3])?
Its value is 3.4.

And the “Js (flux)” value (TR146 cell layer; Penetratin 6.10 μM)?
Its value is 54.075 ± 5.053 ng·cm^−2·h^−1.

And the “Kp (permeability coefficient)” value (TR146 cell layer; Penetratin 12.2 μM)?
The value was 1.115 ± 0.140.

What about the “ER (enhancement ratio)” value (TR146 cell layer; Penetratin 12.2 μM, Kp of formulation divided by Kp of control (text: fold increase of Js/flux)) of the same substance?
The value was 5.5.

And the “Js (flux)” value (TR146 cell layer; Penetratin 12.2 μM)?
The value was 89.190 ± 11.227 ng·cm^−2·h^−1.

And the “TEER Value After” value (TR146 cell layers; 40 μg sCT + Penetratin 0 μM)?
The value was 60.48 ± 5.88 Ω·cm^2.

What about the “TEER Value After” value (TR146 cell layers; 40 μg sCT + Penetratin 1.22 μM) of the same substance?
The value was 59.73 ± 2.94 Ω·cm^2.

And the “TEER Value After” value (TR146 cell layers; 40 μg sCT + Penetratin 6.10 μM)?
The value was 60.11 ± 6.00 Ω·cm^2.

What about the “TEER Value After” value (TR146 cell layers; 40 μg sCT + Penetratin 12.2 μM) of the same substance?
The value was 61.60 ± 6.62 Ω·cm^2.

What about the “TEER Recovery” value (TR146 cell layers; 40 μg sCT + Penetratin 0 μM) of the same substance?
Its value is 96.31 ± 1.78%.

And the “TEER Recovery” value (TR146 cell layers; 40 μg sCT + Penetratin 1.22 μM)?
The value was 94.21 ± 1.90%.

And the “TEER Recovery” value (TR146 cell layers; 40 μg sCT + Penetratin 6.10 μM)?
The value was 98.17 ± 2.64%.

And the “TEER Recovery” value (TR146 cell layers; 40 μg sCT + Penetratin 12.2 μM)?
The value was 96.52 ± 4.97%.

And the “TEER Value Before” value (TR146 cell layers; group 40 μg sCT + Penetratin 0 μM)?
The value was 62.72 ± 5.20 Ω·cm^2.

What about the “TEER Value Before” value (TR146 cell layers; group 40 μg sCT + Penetratin 1.22 μM) of the same substance?
The value was 63.47 ± 3.99 Ω·cm^2.

And the “TEER Value Before” value (TR146 cell layers; group 40 μg sCT + Penetratin 6.10 μM)?
Its value is 61.23 ± 6.00 Ω·cm^2.

And the “TEER Value Before” value (TR146 cell layers; group 40 μg sCT + Penetratin 12.2 μM)?
Its value is 63.84 ± 6.42 Ω·cm^2.

And the “Kp (permeability coefficient)” value (porcine buccal tissues; Penetratin 0 μM (control))?
The value was 0.005 ± 0.000 cm·h^−2 × 10^−3.

What about the “Js (flux)” value (porcine buccal tissues; Penetratin 0 μM (control)) of the same substance?
Its value is 0.208 ± 0.018 ng·cm^−2·h^−1.

What about the “Js (flux)” value (porcine buccal tissues; Penetratin 1.22 μM (sCT:Penetratin 1:0.1)) of the same substance?
Its value is 1.973 ± 0.660 ng·cm^−2·h^−1.

What about the “Kp (permeability coefficient)” value (porcine buccal tissues; Penetratin 1.22 μM) of the same substance?
The value was 0.049 ± 0.017 cm·h^−2 × 10^−3.

What about the “ER (enhancement ratio)” value (porcine buccal tissues; [2]) of the same substance?
The value was 9.5.

What about the “Js (flux)” value (porcine buccal tissues; Penetratin 6.10 μM (sCT:Penetratin 1:0.5)) of the same substance?
The value was 6.707 ± 0.832 ng·cm^−2·h^−1.

What about the “Kp (permeability coefficient)” value (porcine buccal tissues; Penetratin 6.10 μM) of the same substance?
The value was 0.168 ± 0.021 cm·h^−2 × 10^−3.

And the “ER (enhancement ratio)” value (porcine buccal tissues; [3])?
Its value is 32.2.

What about the “Js (flux)” value (porcine buccal tissues; Penetratin 12.2 μM (sCT:Penetratin 1:1)) of the same substance?
Its value is 19.507 ± 1.794 ng·cm^−2·h^−1.

And the “Kp (permeability coefficient)” value (porcine buccal tissues; Penetratin 12.2 μM)?
Its value is 0.488 ± 0.045 cm·h^−2 × 10^−3.

What about the “ER (enhancement ratio)” value (porcine buccal tissues; Penetratin 12.2 μM, Kp of formulation divided by Kp of control (text: fold increase of flux / permeated amount)) of the same substance?
The value was 93.7.

What about the pI [1] of the same substance?
Its pI is 10.4.
